The numbers were not newly measured in patent US8222245B2, “Oxadiazole derivatives active on sphingosine-1-phosphate (S1P)” (Glaxo Group Limited, priority 2007, dated 2012), which cites them from elsewhere.

The test system of one data set is circulating lymphocytes. As to conditions: animals and man.
The conditions of data set [1]: clinical studies, first 24 hours of treatment.

On to `CCCCCCCCc1ccc(CCC(N)(CO)CO)cc1` [FTY720], for which the “effect on circulating lymphocytes” value with circulating lymphocytes is “reduce circulating lymphocytes in animals and man”. Moreover, the bradycardia on treatment result in data set [1] is given as “bradycardia in the first 24 hours of treatment”.
